Assay results published in patent publication US20250213707A1, “COMPOUND FOR INCREASING EFFICACY OF ONCOLYTIC VIRUSES” (ABLEVIA BIOTECH GMBH, priority 2022, published 2025).
Ends that are not written are not given here.

Columns and labels:
[1] = test system: IgG from human donors (anti-AAV antibodies); experiment: Screen for anti-AAV antibodies in human sera based on cyclic 14-amino-acid AAV peptides on microarrays (Table 2); assay type: binding; parameters: key: X: the deduplicated aggregate of the respective top 50 peptide hits for each donor was compiled and designated as group I; details: human donor IgG; circularized AAV peptides; top 50 peptide hits for each donor
Experimental: More than 1200 cyclic peptides derived from the sequences of human and rhesus monkey AAV sequences and artificial AAV sequences according to Table 2 and with a sequence length of 14 amino-acids each were synthesized.
Samples obtained from human donors were screened for antibodies against these AAV-derived peptides immobilized on microarrays. To this end, IgG was prepared from blood obtained from the human donors by protein G purification. Each IgG sample was incubated with the peptide microarrays and Ig binding signals were detected by fluorescence. All antibody binding signals to the peptides on the arrays were background subtracted and ranked for each sample and a deduplicated aggregate of the respective top 250 peptide hits for each donor with the corresponding protein sequence of origin (as obtained from UniProt or other sources) was compiled (designated as group II). Further, the deduplicated aggregate of the respective top 50 peptide hits for each donor was compiled and designated as group I.
Altogether, group I contains 47 distinct peptide hits (assigned to the corresponding AAV vectors in Table 2) and group II yielded 172 distinct peptide hits. Evidently, group I is a subset of group II.

[2] = test system: IgG from human donors (anti-AAV antibodies); experiment: Screen for anti-AAV antibodies in human sera, 2452 linear 15-amino-acid AAV peptides on microarrays (Table 1); assay type: binding; parameters: key to group I: X: the deduplicated aggregate of the respective top 10 peptide hits for each donor was compiled and designated as group I; key to group II: X: the deduplicated aggregate of the respective top 25 peptide hits for each donor was compiled and designated as group II; key to group III: X: the deduplicated aggregate of the respective top 50 peptide hits for each donor was compiled and designated as group III; details: human donor IgG binding to linear 15-amino-acid AAV peptides on microarray, fluorescence; for group II: membership in deduplicated aggregate of top 25 peptide hits for each donor; for group III: membership in deduplicated aggregate of top 50 peptide hits for each donor; for group I: membership in deduplicated aggregate of top 10 peptide hits for each donor
Method in brief: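 Peptide hits were grouped I to IV by pooling each donor's top 10, 25, 50 or 250 background-corrected fluorescence signals, after deduplication. Signals came from donor IgG, purified on protein G, bound to arrayed 15-residue linear peptides (2452 total) spanning 16 AAV sequences.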

[3] = test system: polyclonal antibody ab6982; experiment: Epitope mapping of polyclonal antibody ab6982 against cyclic peptides of Ad5 fiber and hexon (peptide array); assay type: binding, rabbits; details: cyclic peptides of fiber protein (clusters 1-7)

## 1902 (DEEEIRTTNPVATE; REGION 1..14: note = peptide derived from viral capsid protein) [compound 1902]
[1]
  group I: X

## 1895 (ANNLTSTVQIFADS; REGION 1..14: note = peptide derived from viral capsid protein) [compound 1895]
[1]
  group I: X

## 1918 (APGKKRPVDQSPQE; REGION 1..14: note = peptide derived from viral capsid protein) [compound 1918]
[1]
  group I: X

## 1920 (KTAPGKKRPVDQSP; REGION 1..14: note = peptide derived from viral capsid protein) [compound 1920]
[1]
  group I: X

## 1904 (YHLNGRDSLVNPGP; REGION 1..14: note = peptide derived from viral capsid protein) [compound 1904]
[1]
  group I: X

## 1907 (IFNIQVKEVTTSNG; REGION 1..14: note = peptide derived from viral capsid protein) [compound 1907]
[1]
  group I: X

## 1924 (YDQQLKAGDNPYLK; REGION 1..14: note = peptide derived from viral capsid protein) [compound 1924]
[1]
  group I: X

## 1917 (HYFGYSTPWGYFDF; REGION 1..14: note = peptide derived from viral capsid protein) [compound 1917]
[1]
  group I: X

## 1927 (GTNTMATGSGAPMA; REGION 1..14: note = peptide derived from viral capsid protein) [compound 1927]
[1]
  group I: X

## 1900 (LIKNTPVPADPPTT; REGION 1..14: note = peptide derived from viral capsid protein) [compound 1900]
[1]
  group I: X

## 1926 (DKAYDRQLDSGDNP; REGION 1..14: note = peptide derived from viral capsid protein) [compound 1926]
[1]
  group I: X

## 1937 (DDEDKFFPMSGVMI; REGION 1..14: note = peptide derived from viral capsid protein) [compound 1937]
[1]
  group I: X

## 1896 (KIFNIQVKEVTTSN; REGION 1..14: note = peptide derived from viral capsid protein) [compound 1896]
[1]
  group I: X

## 1921 (PEIQYTSNYNKSVN; REGION 1..14: note = peptide derived from viral capsid protein) [compound 1921]
[1]
  group I: X

## 1903 (NYNKSVNVDFTVDT; REGION 1..14: note = peptide derived from viral capsid protein) [compound 1903]
[1]
  group I: X

## 1899 (SESVPDPQPIGEPP; REGION 1..14: note = peptide derived from viral capsid protein) [compound 1899]
[1]
  group I: X

## 1901 (PQYGYLTLNNGSQA; REGION 1..14: note = peptide derived from viral capsid protein) [compound 1901]
[1]
  group I: X

## 1897 (GNTSQQQTDRNAFY; REGION 1..14: note = peptide derived from viral capsid protein) [compound 1897]
[1]
  group I: X

## 1914 (SFITQYSTGQVSVE; REGION 1..14: note = peptide derived from viral capsid protein) [compound 1914]
[1]
  group I: X

## EGASYQVPPQPNGM [SEQ ID NO: 2061]
[2]
  group II: X
  group III: X
[3]
  antibody binding signal ranking from the microarray experiment: 108

## 1912 (PQILIKNTPVPADP; REGION 1..14: note = peptide derived from viral capsid protein) [compound 1912]
[1]
  group I: X

## 1898 (LEDNLSEGIREWWD; REGION 1..14: note = peptide derived from viral capsid protein) [compound 1898]
[1]
  group I: X

## KGEPVNEADAAALE (REGION 1..14: note = peptide derived from viral capsid protein) [SEQ ID NO: 2003]
[2]
  group II: X
  group III: X
[3]
  antibody binding signal ranking from the microarray experiment: 153

## SDSEYQLPYVLGSA [SEQ ID NO: 2050]
[2]
  group II: X
  group III: X
[3]
  antibody binding signal ranking from the microarray experiment: 197

## 1932 (DEEEIKATNPVATE; REGION 1..14: note = peptide derived from viral capsid protein) [compound 1932]
[1]
  group I: X

## MVPQYGYCGVVTGK [SEQ ID NO: 2035]
[2]
  group II: X
  group III: X
[3]
  antibody binding signal ranking from the microarray experiment: 070

## EGADGVGNASGNWH (REGION 1..14: note = peptide derived from viral capsid protein) [SEQ ID NO: 2046]
[2]
  group II: X
  group III: X
[3]
  antibody binding signal ranking from the microarray experiment: 169

## 1929 (TESVPDPQPIGEPP; REGION 1..14: note = peptide derived from viral capsid protein) [compound 1929]
[1]
  group I: X

## HSQSLDRMMNPLLD [SEQ ID NO: 2033]
[2]
  group II: X
  group III: X
[3]
  antibody binding signal ranking from the microarray experiment: 062

## 1933 (DKDKFFPMSGVMIF; REGION 1..14: note = peptide derived from viral capsid protein) [compound 1933]
[1]
  group I: X

## 1923 (TAPGKKRPVDQSPQ; REGION 1..14: note = peptide derived from viral capsid protein) [compound 1923]
[1]
  group I: X

## 1938 (PLVDQYLYRFVSTN; REGION 1..14: note = peptide derived from viral capsid protein) [compound 1938]
[1]
  group I: X

## DKFFPMSGVMIFGK (not fully specified) [SEQ ID NO: 2044]
[2]
  group II: X
  group III: X
[3]
  antibody binding signal ranking from the microarray experiment: 147

## SKTANDNNNSNFPW (REGION 1..14: note = peptide derived from viral capsid protein) [SEQ ID NO: 1995]
[2]
  group I: X
  group II: X
  group III: X
[3]
  antibody binding signal ranking from the microarray experiment: 035

## FSAARINSFLTQYS [SEQ ID NO: 2032]
[2]
  group II: X
  group III: X
[3]
  antibody binding signal ranking from the microarray experiment: 059

## RDTDMFGQIADNNQ [SEQ ID NO: 2037]
[2]
  group II: X
  group III: X
[3]
  antibody binding signal ranking from the microarray experiment: 073

## 1922 (SESVPDPQPLGEPP; REGION 1..14: note = peptide derived from viral capsid protein) [compound 1922]
[1]
  group I: X

## NNFQFSYTFEDVPF (REGION 1..14: note = peptide derived from viral capsid protein) [SEQ ID NO: 1990]
[2]
  group I: X
  group II: X
  group III: X
[3]
  antibody binding signal ranking from the microarray experiment: 003

## QQRLSKTANDNNNS [SEQ ID NO: 1993]
[2]
  group I: X
  group II: X
  group III: X
[3]
  antibody binding signal ranking from the microarray experiment: 019

## PEPADVFMIPQYGY [SEQ ID NO: 2029]
[2]
  group II: X
  group III: X
[3]
  antibody binding signal ranking from the microarray experiment: 029

## IEMRAAPGGNAVDA [SEQ ID NO: 2052]
[2]
  group II: X
  group III: X
[3]
  antibody binding signal ranking from the microarray experiment: 014

## ADPPTTFNQSKLNS [SEQ ID NO: 2024]
[2]
  group II: X
  group III: X
[3]
  antibody binding signal ranking from the microarray experiment: 032

## PVDQSPQEPDSSSG [SEQ ID NO: 1991]
[2]
  group I: X
  group II: X
  group III: X
[3]
  antibody binding signal ranking from the microarray experiment: 005

## KKRILEPLGLVEEA [SEQ ID NO: 2023]
[2]
  group II: X
  group III: X
[3]
  antibody binding signal ranking from the microarray experiment: 023

## KSNNVEFAVNTEGV [SEQ ID NO: 2016]
[2]
  group II: X
  group III: X
[3]
  antibody binding signal ranking from the microarray experiment: 009

## TTSANNLLFTSEEE [SEQ ID NO: 2056]
[2]
  group II: X
  group III: X
[3]
  antibody binding signal ranking from the microarray experiment: 078

## QSSNTAPTTRTVND (REGION 1..14: note = peptide derived from viral capsid protein) [SEQ ID NO: 1994]
[2]
  group I: X
  group II: X
  group III: X
[3]
  antibody binding signal ranking from the microarray experiment: 024

## TVQVFTDSDYQLPY [SEQ ID NO: 2019]
[2]
  group II: X
  group III: X
[3]
  antibody binding signal ranking from the microarray experiment: 013
